Assay results as given in patent US12268683B2, “Compounds and methods for synergistic activation of M channels” (THE REGENTS OF THE UNIVERSITY OF CALIFORNIA, priority 2018, dated 2025).

Key:
Type in all cases: cell-based
[1] = biological target: KCNQ1-R243A/KCNE1 (Homo sapiens, UniProt P51787, R243A); test: TEVC of R243A KCNQ1/KCNE1 channels
Text: (§1) As previously described (12), we generated cRNA transcripts encoding human KCNA1, KCNE1, KCNE2, KCNE3, KCNQ1, KCNQ2, KCNQ3, KCNQ4 or KCNQ5 by in vitro transcription using the T7 polymerase mMessage mMachine kit (Thermo Fisher Scientific), after vector linearization, from cDNA sub-cloned into plasmids incorporating Xenopus laevis β-globin 5′ and 3′ UTRs flanking the coding region to enhance translation and cRNA stability. We quantified cRNA by spectrophotometry. We generated mutant KCNQ2 and KCNQ3 cDNAs by site-directed mutagenesis with a QuikChange kit (Stratagene, San Diego, Calif.) and prepared the cRNAs as above. We injected defolliculated stage V and VI Xenopus laevis oocytes (Ecocyte Bioscience, Austin, Tex. and Xenoocyte, Dexter, Mich., US) with KCNE and/or KCNQ cRNAs (5-20 ng). […]
(§2) We performed TEVC at room temperature using an OC-725C amplifier (Warner Instruments, Hamden, Conn.) and pClamp10 software (Molecular Devices, Sunnyvale, Calif.) 2-5 days after cRNA injection as described in the section above. […] We recorded currents in response to voltage pulses between −120 or −80 mV and +40 mV at 20 mV intervals from a holding potential of −80 mV, to yield current-voltage relationships, current magnitude, and for quantifying activation rate. We analyzed data using Clampfit (Molecular Devices) and Graphpad Prism software (GraphPad, San Diego, Calif., USA); values are stated as mean±SEM. […]

[2] = biological target: KCNQ3/KCNQ5 (Homo sapiens, UniProt O43525+Q9NR82); test: TEVC of KCNQ3/KCNQ5 channels; conditions: similar potency
Text: as §1, §2

[3] = biological target: KCNQ1/KCNE3 (Homo sapiens, UniProt P51787); test: TEVC of KCNQ1/KCNE3 channels
Text: as §1, §2

[4] = biological target: KCNQ2-R213A/KCNQ3 (Homo sapiens, UniProt O43525+O43526, R213A); test: TEVC of KCNQ2-R213A/KCNQ3 channels
Text: as §1, §2

[5] = biological target: KCNQ1-R243A (Homo sapiens, UniProt P51787, R243A); test: TEVC of R243A KCNQ1 channels
Text: as §1, §2

## CCCCCCCCC/C=C/C=O [(E)-2-dodecenal]
[1]
  effect of R243A mutation on (E)-2-dodecenal action in KCNQ1/KCNE1: reduced (E)-2-dodecenal efficacy twofold
[2]
  efficacy on KCNQ3/KCNQ5, lower than on KCNQ5: ~30%
[3]
  effect on KCNQ1/KCNE3 (in words): activated
[4]
  effect on KCNQ2-R213A/KCNQ3 (in words): completely insensitive
[5]
  effect of R243A mutation on (E)-2-dodecenal action in KCNQ1: slightly increased (E)-2-dodecenal efficacy
